Reference: BindingDB's records for doi:10.1016/j.bmcl.2016.09.047 (Boehringer Ingelheim Pharmaceuticals, 2016)
Values joined by “and” are separate entries in the source; they are usually repeats but may differ in a detail not shown here. Equal entries are not always repeated.

Biological target: not listed separately
Assay: Antagonist activity at human CCR10 expressed in mouse BA/F3 cells assessed as inhibition of human CCL27-dependent chemotaxis

IC50 | Structure (SMILES)
53 nM and 50 nM | CC1CCN(C(=O)C(CCn2ccnc2[N+](=O)[O-])NS(=O)(=O)c2cc(Cl)c(N)c(Cl)c2)CC1 (centres undefined)
13 nM | CC1CCN(C(=O)C(CCn2cccc2C#N)NS(=O)(=O)c2ccc3[nH]ccc3c2)CC1 (centres undefined)
251 nM | CC1CCN(C(=O)C(CCn2ccnc2Cl)NS(=O)(=O)c2cc(Cl)c(N)c(Cl)c2)CC1 (centres undefined)
501 nM | CC1CCN(C(=O)[C@@H](CCc2ccccc2)NS(=O)(=O)c2cc(Cl)c(N)c(Cl)c2)CC1
1260 nM | CC1CCN(C(=O)C(CCn2nccn2)NS(=O)(=O)c2cc(Cl)c(N)c(Cl)c2)CC1 (centres undefined)
1260 nM | CC1CCN(C(=O)C(CCn2cccn2)NS(=O)(=O)c2cc(Cl)c(N)c(Cl)c2)CC1 (centres undefined)
79 nM | Cc1ccc(S(=O)(=O)NC(CCn2cccc2C#N)C(=O)N2CCC(C)CC2)c(C)c1N (centres undefined)
16 nM | CC1CCN(C(=O)C(CCn2cccc2C#N)NS(=O)(=O)c2ccc3cc[nH]c3c2)CC1 (centres undefined)

Biological target: T1, C-C chemokine receptor type 10 (Homo sapiens, UniProt P46092)
T1 sequence (P46092 whole entry): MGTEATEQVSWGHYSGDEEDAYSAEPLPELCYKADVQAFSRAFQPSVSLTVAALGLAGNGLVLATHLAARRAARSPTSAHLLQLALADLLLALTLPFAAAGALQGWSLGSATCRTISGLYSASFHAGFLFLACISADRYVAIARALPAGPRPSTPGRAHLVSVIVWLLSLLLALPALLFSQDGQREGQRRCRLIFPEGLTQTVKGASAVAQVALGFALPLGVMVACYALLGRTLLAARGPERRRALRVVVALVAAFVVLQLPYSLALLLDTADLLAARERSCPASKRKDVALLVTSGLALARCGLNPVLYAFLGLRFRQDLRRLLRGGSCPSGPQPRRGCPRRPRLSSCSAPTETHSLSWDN
Assay: Antagonist activity at human CCR10 expressed in mouse BA/F3 cells assessed as inhibition of human CCL27-dependent chemotaxis

IC50 [nM] | Structure (SMILES)
16 | CC1CCN(C(=O)C(CCn2cccc2C#N)NS(=O)(=O)c2cc(Cl)c(N)c(Cl)c2)CC1 (centres undefined)
